e = 2'-O-(2-methoxyethyl) (MOE); d = 2'-deoxy (DNA)
Columns and labels:
Assay type in all cases: in vivo, mouse
murine Factor 7 protein = assay: Plasma Factor 7 protein, Factor 7 chromogenic assay, BALB/c mice
Protocol: BALB/c mice were treated with ISIS 403102 ([…], target site 11336, incorporated herein as SEQ ID NO: 161). BALB/c mice were injected subcutaneously with 5 mg/kg, 10 mg/kg, 25 mg/kg, or 50 mg/kg of ISIS 403102 twice a week for 3 weeks. A control group of mice was injected subcutaneously with PBS twice a week for 3 weeks. After the treatment period, whole liver was collected for RNA and protein analysis, and plasma was collected for clotting analysis (PT/aPTT).
Plasma Factor 7 protein was measured using a Factor 7 chromogenic assay (Hyphen BioMed). […] Results are presented as percent inhibition of Factor 7, relative to control.

[1] = tested on: extrinsic pathway of blood coagulation; assay: Prothrombin Time (PT) in platelet poor plasma of treated BALB/c mice
Protocol: (§1) Prothrombin Time (PT) and Activated Partial Thromboplastin Time (aPTT) were measured using platelet poor plasma (PPP) from mice treated with ISIS 403102. PT and aPTT values provided in Table 20 are reported as International Normalized Ratio (INR) values. INR values for PT and aPTT were determined by dividing the PT or aPTT value for the experimental group by the PT or aPTT for the PBS treated group. This ratio was then raised to the power of the International Sensitivity Index (ISI) of the tissue factor used.
as §1, with “in Table 22 are reported” for “in Table 20 are reported”, “experimental group (i.e. 50 mg/kg treatment with ISIS 403102) by the” for “experimental group by the”
as §1, with “in Table 24 are reported” for “in Table 20 are reported”, “experimental group (i.e. 50 mg/kg treatment with ISIS 403102) by the” for “experimental group by the”

murine Factor 7 mRNA = assay: Multiple dose pharmacokinetic assay: liver Factor 7 mRNA in mice; conditions: for % Inhibition: liver Factor 7 mRNA, mice, relative to PBS control
Protocol: The duration of action of multiple doses of ISIS 403102 on antisense inhibition of murine Factor 7 and clotting time was evaluated. In a first group of mice, 25 mg/kg of ISIS 403102 was injected subcutaneously as a single dose. Mice from the first group were sacrificed on days 1 and 3 after the single dose. In a second group of mice, 25 mg/kg of ISIS 403102 was administered subcutaneously twice a week for 1 week. Mice from the second group were sacrificed on day 3 after the last dose of ISIS 403102 was administered. In a third group of mice, 25 mg/kg of ISIS 403102 was administered subcutaneously twice a week for 2 weeks. Mice from the third group were sacrificed on day 3 after the last dose of ISIS 403102 was administered. In a fourth group of mice, 25 mg/kg of ISIS 403102 was administered subcutaneously twice a week for 3 weeks. Mice from the fourth group were sacrificed on days 2, 7, 14, 28, 42, and 56 after the last dose of ISIS 403102 was administered. A control group of 3 mice was injected with PBS in a single dose. Mice from the control group were sacrificed 1 day later. Mice in all groups were sacrificed by cervical dislocation following anesthesia with 150 mg/kg ketamine mixed with 10 mg/kg xylazine administered by intraperitoneal injection. Liver was harvested for RNA analysis and plasma was collected for clotting analysis (PT and aPTT) for mice in all groups.
RNA was extracted from liver tissue for quantitative RT-PCR analysis of Factor 7. Results are presented as percent inhibition of Factor 7, relative to PBS control. […] Inhibition increased through day 3 in the single dose treatment group. […] Inhibition increased through day 3 in the 2 dose treatment group.

For “CCATAGAACAGCTTCACAGG (sugars from the 5' end e5 d10 e5, backbone and methylation of C not given here) [ISIS 403102]”, the “% inhibition of murine Factor 7 protein” value (murine Factor 7 protein; 5 mg/kg subcutaneously twice a week for 3 weeks) was 71%, the “% inhibition of murine Factor 7 protein” value (murine Factor 7 protein; 10 mg/kg subcutaneously twice a week for 3 weeks) was 88% and the “% inhibition of murine Factor 7 protein” value (murine Factor 7 protein; 25 mg/kg subcutaneously twice a week for 3 weeks) was 99%. The “% inhibition of murine Factor 7 protein” value (murine Factor 7 protein; 50 mg/kg subcutaneously twice a week for 3 weeks) was 99%, the “reduction of murine Factor 7 protein over the PBS control” value (murine Factor 7 protein; 5-50 mg/kg twice a week for 3 weeks) was “dose-dependent reduction of murine Factor 7 protein” and the “PT INR” value ([1]; BALB/c mice, 5 mg/kg, relative to PBS treated group) was 1.09. The “PT INR” value ([1]; BALB/c mice, 10 mg/kg, relative to PBS treated group) was 1.33, the “PT INR” value ([1]; BALB/c mice, 25 mg/kg, relative to PBS treated group) was 2.33 and the “PT INR” value ([1]; BALB/c mice, 50 mg/kg, 1 dose, 1 day after last dose, relative to PBS group) was 1.04 INR. The “PT INR” value ([1]; BALB/c mice, 50 mg/kg, 1 dose, 3 days after last dose, relative to PBS group) was 1.20 INR, the “PT INR” value ([1]; BALB/c mice, 50 mg/kg, 2 doses, 3 days after last dose, relative to PBS group) was 1.43 INR and the “PT INR” value ([1]; BALB/c mice, 50 mg/kg, 4 doses, 3 days after last dose, relative to PBS group) was 2.13 INR. The “PT INR” value ([1]; BALB/c mice, 50 mg/kg, 6 doses, 2 days after last dose, relative to PBS group) was 1.64 INR, the “PT INR” value ([1]; BALB/c mice, 50 mg/kg, 6 doses, 7 days after last dose, relative to PBS group) was 2.08 INR and the “PT INR” value ([1]; BALB/c mice, 50 mg/kg, 6 doses, 14 days after last dose, relative to PBS group) was 1.37 INR. The “PT INR” value ([1]; BALB/c mice, 50 mg/kg, 6 doses, 28 days after last dose, relative to PBS group) was 0.96 INR, the “PT INR” value ([1]; BALB/c mice, 50 mg/kg, 6 doses, 42 days after last dose, relative to PBS group) was 1.00 INR and the “PT INR” value ([1]; BALB/c mice, 50 mg/kg, 6 doses, 56 days after last dose, relative to PBS group) was 0.99 INR. For the same sequence, the “PT INR” value ([1]; BALB/c mice, 50 mg/kg, relative to PBS treated group) was 4.37, the “PT INR” value ([1]; BALB/c mice, single dose 50 mg/kg, day 1) was 1.11 and the “PT INR” value ([1]; BALB/c mice, single dose 50 mg/kg, day 2) was 1.64. For the same sequence, the “PT INR” value ([1]; BALB/c mice, single dose 50 mg/kg, day 3) was 1.81, the “PT INR” value ([1]; BALB/c mice, single dose 50 mg/kg, day 4) was 1.97 and the “PT INR” value ([1]; BALB/c mice, single dose 50 mg/kg, day 6) was 1.59. For the same sequence, the “PT INR” value ([1]; BALB/c mice, single dose 50 mg/kg, day 8) was 1.55, the “PT INR” value ([1]; BALB/c mice, single dose 50 mg/kg, day 12) was 1.30 and the “PT INR” value ([1]; BALB/c mice, single dose 50 mg/kg, day 24) was 1.12. For the same sequence, the “PT INR” value ([1]; BALB/c mice, single dose 50 mg/kg, day 56) was 1.10, the “PT compared to the control” value ([1]; Example 11, 5-50 mg/kg twice a week for 3 weeks) was “significantly prolonged” and the PT ([1]; Example 13, 6 doses, from day 7 to day 56) was “decreased”. For the same sequence, the “PT INR” value ([1]; single dose 50 mg/kg, day 1) was 1.11, the “PT INR” value ([1]; single dose 50 mg/kg, day 4) was 1.97 and the “PT INR” value ([1]; single dose 50 mg/kg, day 56) was 1.10. For the same sequence, the “Factor 7 inhibition” value (murine Factor 7 mRNA; 6 doses of 25 mg/kg, days 14, 28, 42 and 56 after last dose) was “declined progressively”, the “% Inhibition” value (murine Factor 7 mRNA; 25 mg/kg subcutaneously twice a week, 2 doses, 3 days after last dose) was 86% and the “% Inhibition” value (murine Factor 7 mRNA; 25 mg/kg subcutaneously twice a week, 4 doses, 3 days after last dose) was 91%. The “% Inhibition” value (murine Factor 7 mRNA; 25 mg/kg subcutaneously twice a week, 6 doses, 2 days after last dose) was 83%, the “% Inhibition” value (murine Factor 7 mRNA; 25 mg/kg subcutaneously twice a week, 6 doses, 7 days after last dose) was 88% and the “% Inhibition” value (murine Factor 7 mRNA; 25 mg/kg subcutaneously twice a week, 6 doses, 14 days after last dose) was 64%. The “% Inhibition” value (murine Factor 7 mRNA; 25 mg/kg subcutaneously twice a week, 6 doses, 28 days after last dose) was 33%, the “% Inhibition” value (murine Factor 7 mRNA; 25 mg/kg subcutaneously twice a week, 6 doses, 42 days after last dose) was 5% and the “% Inhibition” value (murine Factor 7 mRNA; 25 mg/kg subcutaneously twice a week, 6 doses, 56 days after last dose) was 11%. For the same sequence, the “% Inhibition” value (murine Factor 7 mRNA; 25 mg/kg subcutaneously, 1 dose, 1 day after last dose) was 44%, the “% Inhibition” value (murine Factor 7 mRNA; 25 mg/kg subcutaneously, 1 dose, 3 days after last dose) was 74% and the “inhibition of Factor 7 mRNA” value (murine Factor 7 mRNA; single dose 25 mg/kg subcutaneously) was “inhibition of Factor 7 as early as day 1”.

— patent publication US9029337B2, “Modulation of factor 7 expression” (Isis Pharmaceuticals, Inc., priority 2007, dated 2015)
